Data on two compounds can be found in ChEMBL document CHEMBL1145422, “Spongian diterpenoids from the sponge Spongia (Heterofibria) sp” (2007).

This assay in a line: Effect on lysosomal activation in mouse splenocytes at 100 ug/mL relative to control. Type of assay: functional.

Each structure is given as a SMILES string.

Compound `CC(=O)OC[C@]1(C)[C@@H]2CC[C@@]3(C)c4cocc4CC[C@@H]3[C@@]2(C)CC[C@@H]1OC(C)=O` had an Activity of 130%. With `CC(=O)OC[C@@]1(C)CCC[C@]2(C)[C@H]3CCc4cocc4[C@]3(C)CC[C@@H]12`, the Activity is reported as 130%.
